The nature of data set [1]: in vivo. The conditions noted are these: male, Sprague-Dawley, rat, 20 nmol/kg.
Description: PK studies were performed to determine the half-life (T1/2) of test peptides. T1/2 describes the time taken for the maximum plasma concentration (Cmax) of a test substance to halve its steady-state concentration when in circulation.
The animals were 6-8 weeks old with body weights of 200-300 g on the dosing date. The animals were housed in a 12-hour light/12-hour dark cycle environment and were fasted overnight before dosing. The body weight of the animals were recorded before dosing, 24 h and 48 h post dosing.
Test articles were administered at 20 nmol/kg. Blood samples were collected from each animal via Jugular vein.
The blood samples were transferred into eppendorf low binding tube containing K2EDTA. Above 0.150 mL blood were collected at each time point. Blood samples were centrifuged at 4,000 g for 5 minutes at 4° C. to obtain plasma. The plasma samples were stored frozen at −75±15° C. until analysis.
Concentrations of the test articles in the plasma samples were analyzed using a LC-MS/MS method. […] The pharmacokinetic parameters of test articles were calculated using a non-compartmental approach with Phoenix™ WinNonlin®6.1.
The following pharmacokinetic parameters were calculated, whenever possible from the plasma concentration versus time data: • IV administration: T1/2, C0, AUClast, AUCinf, MRTinf, CI, Vss, Number of Points for Regression. • SC administration: Tmax, Cmax, AUClast, AUCinf, MRTinf, F, Number of Points for Regression.
The target in data set [2] is T1, human amylin receptor (calcitonin receptor co-expressed with receptor activity modifying protein, RAMP3) (hAMYR3) (Homo sapiens, UniProt O60896+P30988).
T1 construct: expressed in transfected cells
T1 sequence (P30988 25-474): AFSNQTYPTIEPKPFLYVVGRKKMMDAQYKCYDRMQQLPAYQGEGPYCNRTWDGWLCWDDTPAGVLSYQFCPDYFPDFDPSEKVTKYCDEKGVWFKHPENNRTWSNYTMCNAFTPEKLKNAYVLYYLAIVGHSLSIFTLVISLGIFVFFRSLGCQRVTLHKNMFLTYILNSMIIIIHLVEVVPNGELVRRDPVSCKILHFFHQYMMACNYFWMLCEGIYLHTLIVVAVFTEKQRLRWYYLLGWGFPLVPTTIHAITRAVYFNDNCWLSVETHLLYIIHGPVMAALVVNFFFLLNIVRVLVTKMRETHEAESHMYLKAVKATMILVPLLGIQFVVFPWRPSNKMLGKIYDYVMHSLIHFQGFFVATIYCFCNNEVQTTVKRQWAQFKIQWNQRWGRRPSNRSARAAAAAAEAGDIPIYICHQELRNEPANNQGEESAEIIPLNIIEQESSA
T1 sequence (O60896 24-148 partner): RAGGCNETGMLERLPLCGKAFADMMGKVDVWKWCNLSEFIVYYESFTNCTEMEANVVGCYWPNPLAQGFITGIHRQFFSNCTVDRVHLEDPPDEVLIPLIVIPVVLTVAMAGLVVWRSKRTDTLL
Description: cAMP production in 1321N1 cells with stable recombinant expression of human amylin receptor (hAMYR3). It is filed as cell-based. The conditions noted are these: cAMP production, 1321N1 cells expressing human amylin3 receptor. The method, then: The functional activities of lipidated pramlintide analogue peptides, such as cAMP production, were tested in 1321N1 cell line with stable recombinant expression of human calcitonin receptor (hCTR) or human amylin receptor (calcitonin receptor co-expressed with receptor activity modifying protein, RAMP3) (hAMYR3) or HEK cells with stable recombinant expression of rat calcitonin receptor (rat CTR) or rat amylin receptor (calcitonin receptor co-expressed with receptor activity modifying protein, RAMP3) (Rat AMYR3).
Cryopreserved cell stock was thawed rapidly in a water-bath, suspended in assay buffer (0.1% BSA (Sigma #A3059) in HBSS (Sigma #H8264) with 25 mM HEPES, pH 7.4 and containing 0.5 mM IB MX (Sigma #17018)) and spun at 240×g for 5 minutes. Cells were re-suspended in assay buffer at a batch-dependent optimized concentration (e.g. hCTR cells at 0.125×10^5 cells/mL, hAMYR3 cells at 0.125×10^5 cells/mL, rat CTR cells at 1×10^5 cells/mL, rat AMYR3 at 2×10^5 cells/mL).
The test peptide stock was prepared in DMSO and diluted in assay buffer to reach stated concentrations and transferred in duplicates into a 384-black shallow well microtitre assay plate (Corning #3676). Cells were added to the assay plate, incubated at room temperature for 30 minutes and the CAMP level measured using CAMP dynamic 2 HTRF kit (Cisbio, Cat #62AM4PEJ), following the two step protocol as per manufacturer's recommendations. The plates were read on an Envision (Perkin Elmer) using excitation wavelength of 320 nm and emission wavelengths of 620 nm & 665 nm.
Data was transformed to % Delta F as described in the manufacturer's guidelines and analyzed as percent activation of maximal amylin or calcitonin effect by 4-parameter logistic fit to determine EC50 values. The selectivity of a peptide to hAMYR vs hCTR is defined as a ratio of EC50 values at the two receptors.

Data set [3] can be described thus: Thioflavin T fibrillation assay. The format is physicochemical. The conditions noted are these: 1 mg/mL in 25 mM sodium acetate buffer pH 4.0, 37° C., 6 days, orbital shaking; >144 h = no increase. The method, boiled down:
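Peptides at 1 mg/mL in 25 mM sodium acetate pH 4.0 were mixed with ThT (0.25 mM stock) and held 6 days at 37 °C with intermittent orbital shaking at 500–750 rpm. Fluorescence (ex 444/em 480 nm) was read every 30 min, with buffer baseline correction and 5 replicates. Value: mean time to a detectable fluorescence increase.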

Numbered stars: 1 amine (or outer) side, 2 acyl side, 3 side chain; on linkers, the order of the positions; unused ones are H or OH. Bridge positions count the residues as written; N and C are the ends. Side chains are listed from the residue outwards. Peptide text beside a SMILES is read from it. * marks the point of attachment. C20 diacid = O=C(O)CCCCCCCCCCCCCCCCCCC(=O)*; γGlu = O=C(O)[C@H](CCC(=O)[*:2])N[*:1]

The term half-life denotes how long it takes for the measured level to halve. Low values mean rapid decline, high ones slow decline. A word on the EC50: it is the concentration needed to bring the measured effect to its halfway point. Take `CC[C@H](C)[C@H](NC(=O)[C@@H]1CCCN1C(=O)CNC(=O)[C@H](Cc1ccccc1)NC(=O)[C@H](CC(N)=O)NC(=O)[C@H](CC(N)=O)NC(=O)[C@H](CO)NC(=O)[C@H](CO)NC(=O)[C@H](Cc1c[nH]cn1)NC(=O)[C@@H](NC(=O)[C@H](CC(C)C)NC(=O)[C@H](Cc1ccccc1)NC(=O)[C@H](CC(N)=O)NC(=O)[C@H](C)NC(=O)[C@H](CC(C)C)NC(=O)[C@H](CCCNC(=N)N)NC(=O)[C@H](CCC(N)=O)NC(=O)[C@@H](NC(=O)[C@H](C)NC(=O)[C@@H]1CSSC[C@H](NC(=O)[C@@H](N)CCCCNC(=O)CC[C@H](NC(=O)CC[C@H](NC(=O)CCCCCCCCCCCCCCCCCCC(=O)O)C(=O)O)C(=O)O)C(=O)N[C@@H](CC(N)=O)C(=O)N[C@@H]([C@@H](C)O)C(=O)N[C@@H](C)C(=O)N[C@@H]([C@@H](C)O)C(=O)N1)[C@@H](C)O)C(C)C)C(=O)N[C@@H](CC(C)C)C(=O)N1CCC[C@H]1C(=O)N1CCC[C@H]1C(=O)N[C@H](C(=O)N[C@@H](CC(N)=O)C(=O)N[C@H](C(=O)NCC(=O)N[C@@H](CO)C(=O)N[C@@H](CCCNC(=N)N)C(=O)N[C@H](C(=O)N[C@@H](Cc1ccc(O)cc1)C(N)=O)[C@@H](C)O)C(C)C)[C@@H](C)O` [Peptide 114] (H-K([γGlu-γGlu-C20 diacid])CNTATCATQRLANFLVHSSNNFGPILPPTNVGSRTY-NH2; disulfide 2-7; N-terminus assumed): the half-life was 13 h in data set [1] (iv) and 21.6 h in data set [1] (sc). Further, the EC50 in data set [2] was found to be 1.32 nM. Further, in data set [3], the “Time taken to detect increase in fluorescence intensity” value is recorded as below 5 h.

`CC[C@H](C)[C@H](NC(=O)[C@H](C)NC(=O)[C@@H]1CCCN1C(=O)[C@H](Cc1ccccc1)NC(=O)[C@H](CC(N)=O)NC(=O)[C@@H]1CCCN1C(=O)[C@H](CO)NC(=O)[C@H](CO)NC(=O)[C@H](Cc1c[nH]cn1)NC(=O)[C@@H](NC(=O)[C@H](CC(C)C)NC(=O)[C@H](Cc1ccccc1)NC(=O)[C@H](CC(N)=O)NC(=O)[C@H](C)NC(=O)[C@H](CC(C)C)NC(=O)[C@H](CCCNC(=N)N)NC(=O)[C@H](CCC(N)=O)NC(=O)[C@@H](NC(=O)[C@H](C)NC(=O)[C@@H]1CSSC[C@H](NC(=O)[C@@H](N)CCCCNC(=O)CC[C@H](NC(=O)CC[C@H](NC(=O)CCCCCCCCCCCCCCCCCCC(=O)O)C(=O)O)C(=O)O)C(=O)N[C@@H](CC(N)=O)C(=O)N[C@@H]([C@@H](C)O)C(=O)N[C@@H](C)C(=O)N[C@@H]([C@@H](C)O)C(=O)N1)[C@@H](C)O)C(C)C)C(=O)N[C@@H](CC(C)C)C(=O)N[C@@H](CO)C(=O)N1CCC[C@H]1C(=O)N[C@H](C(=O)N[C@@H](CC(N)=O)C(=O)N[C@H](C(=O)NCC(=O)N[C@@H](CO)C(=O)N[C@@H](CC(N)=O)C(=O)N[C@H](C(=O)N[C@@H](Cc1ccc(O)cc1)C(N)=O)[C@@H](C)O)C(C)C)[C@@H](C)O` [Peptide 115] (H-K([γGlu-γGlu-C20 diacid])CNTATCATQRLANFLVHSSPNFPAILSPTNVGSNTY-NH2; disulfide 2-7; N-terminus assumed): the figures for the half-life in data set [1] (iv) and in data set [1] (sc) were 14.9 h and 20.3 h, respectively. Further, the EC50 in data set [2] was 0.703 nM. For the same compound, the “Time taken to detect increase in fluorescence intensity” value in data set [3] is listed as below 5 h.

The values are drawn from patent US12371464B2, “Polypeptides and uses thereof” (MEDIMMUNE LIMITED, priority 2020, dated 2025).
